According to ChEMBL document CHEMBL4145510, “Discovery of a Keap1-dependent peptide PROTAC to knockdown Tau by ubiquitination-proteasome degradation pathway” (Eur J Med Chem, 2018):
Active and inactive are the calls of the source. The rule behind the calls is not given here.

How the values were obtained:
[1] = target: T1, Kelch-like ECH-associated protein 1/Microtubule-associated protein tau/Cullin-3 (Homo sapiens) (UniProt P10636+Q14145+Q13618); test: Induction of Keap1/Cul3- mediated EGFP tagged Tau (unknown origin) degradation in human SH-SY5Y cells at 20 uM after 10 hrs by flow cytometry analysis; format: cell-based
T1 sequence (P10636 whole entry, looked up): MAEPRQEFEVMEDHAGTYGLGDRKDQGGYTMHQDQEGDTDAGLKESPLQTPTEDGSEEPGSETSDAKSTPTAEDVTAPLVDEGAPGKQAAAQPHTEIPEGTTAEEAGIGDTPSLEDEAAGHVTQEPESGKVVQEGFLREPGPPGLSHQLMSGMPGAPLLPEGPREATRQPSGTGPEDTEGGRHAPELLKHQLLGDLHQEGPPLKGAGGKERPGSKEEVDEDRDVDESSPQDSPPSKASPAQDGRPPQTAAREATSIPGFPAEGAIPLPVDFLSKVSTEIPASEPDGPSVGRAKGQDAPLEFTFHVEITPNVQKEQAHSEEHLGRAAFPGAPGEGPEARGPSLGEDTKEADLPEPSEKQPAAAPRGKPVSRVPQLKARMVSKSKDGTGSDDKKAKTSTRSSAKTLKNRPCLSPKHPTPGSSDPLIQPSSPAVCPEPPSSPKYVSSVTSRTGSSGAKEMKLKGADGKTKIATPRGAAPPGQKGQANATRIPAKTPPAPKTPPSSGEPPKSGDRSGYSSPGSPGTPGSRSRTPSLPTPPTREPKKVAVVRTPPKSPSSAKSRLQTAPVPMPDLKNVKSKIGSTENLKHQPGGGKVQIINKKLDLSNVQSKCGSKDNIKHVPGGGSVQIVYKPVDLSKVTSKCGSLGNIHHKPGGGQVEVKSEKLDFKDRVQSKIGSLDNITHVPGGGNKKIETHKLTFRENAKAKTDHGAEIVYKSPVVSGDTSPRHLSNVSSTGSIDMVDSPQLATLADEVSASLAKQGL
T1 sequence (Q13618 whole entry, looked up): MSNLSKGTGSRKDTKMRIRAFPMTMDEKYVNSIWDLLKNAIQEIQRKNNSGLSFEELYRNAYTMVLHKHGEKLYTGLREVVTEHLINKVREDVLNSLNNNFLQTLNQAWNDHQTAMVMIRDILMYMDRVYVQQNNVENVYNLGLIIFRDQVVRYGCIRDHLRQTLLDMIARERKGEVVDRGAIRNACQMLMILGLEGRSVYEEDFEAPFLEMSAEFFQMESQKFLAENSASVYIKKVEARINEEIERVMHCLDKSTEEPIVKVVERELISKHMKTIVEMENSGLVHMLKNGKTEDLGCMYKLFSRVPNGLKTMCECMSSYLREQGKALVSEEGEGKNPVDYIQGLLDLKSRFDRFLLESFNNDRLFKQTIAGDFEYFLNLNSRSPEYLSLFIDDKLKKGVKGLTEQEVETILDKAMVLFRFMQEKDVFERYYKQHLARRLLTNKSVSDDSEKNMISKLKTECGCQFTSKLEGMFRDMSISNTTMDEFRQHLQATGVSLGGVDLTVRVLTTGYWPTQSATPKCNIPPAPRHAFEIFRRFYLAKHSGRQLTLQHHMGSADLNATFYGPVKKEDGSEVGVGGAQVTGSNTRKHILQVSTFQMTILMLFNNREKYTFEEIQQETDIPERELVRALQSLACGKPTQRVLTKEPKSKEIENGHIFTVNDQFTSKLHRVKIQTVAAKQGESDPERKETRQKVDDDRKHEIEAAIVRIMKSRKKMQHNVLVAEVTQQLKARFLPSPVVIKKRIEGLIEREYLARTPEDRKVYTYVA
T1 sequence (Q14145 whole entry, looked up): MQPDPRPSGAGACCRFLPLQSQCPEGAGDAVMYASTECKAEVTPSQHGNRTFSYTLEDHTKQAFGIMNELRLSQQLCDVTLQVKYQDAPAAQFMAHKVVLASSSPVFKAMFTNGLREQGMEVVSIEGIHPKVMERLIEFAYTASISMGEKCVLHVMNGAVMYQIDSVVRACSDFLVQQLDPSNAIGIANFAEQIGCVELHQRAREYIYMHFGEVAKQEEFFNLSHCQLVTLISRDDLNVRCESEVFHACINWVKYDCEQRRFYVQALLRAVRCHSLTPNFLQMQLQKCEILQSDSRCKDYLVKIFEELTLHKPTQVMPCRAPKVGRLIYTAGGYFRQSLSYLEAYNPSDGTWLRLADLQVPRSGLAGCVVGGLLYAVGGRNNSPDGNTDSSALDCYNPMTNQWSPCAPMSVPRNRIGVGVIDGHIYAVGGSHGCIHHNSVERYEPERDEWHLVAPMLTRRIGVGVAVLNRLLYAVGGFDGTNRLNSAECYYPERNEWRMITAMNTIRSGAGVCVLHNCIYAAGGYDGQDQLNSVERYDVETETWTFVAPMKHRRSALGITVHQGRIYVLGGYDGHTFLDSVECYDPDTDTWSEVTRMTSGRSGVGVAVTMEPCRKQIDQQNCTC

[2] = target: T1, Kelch-like ECH-associated protein 1/Microtubule-associated protein tau/Cullin-3 (Homo sapiens); test: Induction of Keap1/Cul3- mediated EGFP tagged Tau (unknown origin) degradation in human SH-SY5Y cells at 10 uM incubated for 10 hrs in absence of proteasome inhibitor MG132 by Western blot analysis; format: cell-based
[3] = target: T1, Kelch-like ECH-associated protein 1/Microtubule-associated protein tau/Cullin-3 (Homo sapiens); test: Induction of Keap1/Cul3- mediated EGFP tagged Tau (unknown origin) degradation in human SH-SY5Y cells at 10 uM incubated for 10 hrs in presence of proteasome inhibitor MG132 by Western blot analysis; format: cell-based
[4] = target: Cullin-3/Microtubule-associated protein tau (Homo sapiens) (UniProt P10636+Q13618); test: Induction of Cul3- mediated EGFP tagged Tau (unknown origin) degradation in human SH-SY5Y cells harboring Keap1 siRNA at 10 uM by Western blot analysis; format: cell-based
Chain of Cullin-3/Microtubule-associated protein tau (Homo sapiens) (P10636 whole entry, looked up, the tested form may be a part): as the sequence (P10636 whole entry, looked up) above
Chain of Cullin-3/Microtubule-associated protein tau (Homo sapiens) (Q13618 whole entry, looked up, the tested form may be a part): as the sequence (Q13618 whole entry, looked up) above

[5] = target: Kelch-like ECH-associated protein 1 (Homo sapiens, UniProt Q14145); test: Binding affinity to human Keap1 (322 to 609 residues) by ITC method
Chain of Kelch-like ECH-associated protein 1 (Q14145 whole entry, the tested form may be a part): as the sequence (Q14145 whole entry, looked up) above

[6] = target: Microtubule-associated protein tau (Homo sapiens, UniProt P10636); test: Binding affinity to human Tau (1 to 441 residues) by ITC method
Chain of Microtubule-associated protein tau (P10636 whole entry, the tested form may be a part): as the sequence (P10636 whole entry, looked up) above

[7] = Drug uptake in human SH-SY5Y cells using N-terminal TAMRA labeled compound at 10 uM after 12 hrs by Flow cytometry analysis; format: ADME, cell-based
[8] = Drug uptake in human SH-SY5Y cells using N-terminal TAMRA labeled compound at 10 uM after 8 hrs by DAPI staining-based laser scanning confocal microscopic analysis; format: ADME, cell-based
[9] = target: Kelch-like ECH-associated protein 1/Microtubule-associated protein tau (Homo sapiens) (UniProt P10636+Q14145); test: Binding affinity to Keap1/Tau in human SH-SY5Y cells at 10 to 20 uM by Western blot analysis; format: cell-based
Chain of Kelch-like ECH-associated protein 1/Microtubule-associated protein tau (Homo sapiens) (P10636 whole entry, looked up): as above
Chain of Kelch-like ECH-associated protein 1/Microtubule-associated protein tau (Homo sapiens) (Q14145 whole entry, looked up): as the sequence (Q14145 whole entry, looked up) above

[10] = Induction of Keap1/Cul3- mediated EGFP tagged Tau (unknown origin) degredation in mouse Neuro2a cells by Western blot analysis; format: cell-based
[11] = Induction of Keap1/Cul3- mediated EGFP tagged Tau (unknown origin) degradation in rat PC12 cells by Western blot analysis; format: cell-based

Structure (SMILES)	Activity [1]	Activity [2]	Activity [3]	Activity [4]	other results
CC(=O)N[C@@H](Cc1ccc(O)cc1)C(=O)N[C@@H](CCC(N)=O)C(=O)N[C@@H](CCC(N)=O)C(=O)N[C@@H](Cc1ccc(O)cc1)C(=O)N[C@@H](CCC(N)=O)C(=O)N[C@@H](CC(=O)O)C(=O)N[C@@H](C)C(=O)N[C@H](C(=O)N[C@@H](C)C(=O)N[C@@H](CC(=O)O)C(=O)N[C@@H](CCC(=O)O)C(=O)N[C@@H](CCC(N)=O)C(=O)NCC(=O)NCC(=O)N[C@@H](CO)C(=O)NCC(=O)N[C@@H](CO)C(=O)N[C@@H](CC(C)C)C(=O)N[C@@H](CC(=O)O)C(=O)N1CCC[C@H]1C(=O)N[C@@H](C)C(=O)N[C@H](C(=O)NCC(=O)N[C@@H](CCC(=O)O)C(=O)N[C@@H](Cc1ccc(O)cc1)C(=O)N[C@@H](CC(C)C)C(=O)N[C@H](CCCNC(=N)N)C(=O)N[C@H](CCCNC(=N)N)C(=O)N[C@H](CCCNC(=N)N)C(=O)N[C@H](CCCNC(=N)N)C(=O)N[C@H](CCCNC(=N)N)C(=O)N[C@H](CCCNC(=N)N)C(=O)N[C@H](CCCNC(=N)N)C(=O)N[C@H](CCCNC(=N)N)C(=O)O)[C@@H](C)O)[C@@H](C)O	inactive	inactive	inactive	inactive	
CC(=O)N[C@@H](Cc1ccc(O)cc1)C(=O)N[C@@H](CCC(N)=O)C(=O)N[C@@H](CCC(N)=O)C(=O)N[C@@H](Cc1ccc(O)cc1)C(=O)N[C@@H](CCC(N)=O)C(=O)N[C@@H](CC(=O)O)C(=O)N[C@@H](C)C(=O)N[C@H](C(=O)N[C@@H](C)C(=O)N[C@@H](CC(=O)O)C(=O)N[C@@H](CCC(=O)O)C(=O)N[C@@H](CCC(N)=O)C(=O)NCC(=O)NCC(=O)NCC(=O)N[C@@H](CO)C(=O)NCC(=O)NCC(=O)N[C@@H](CC(C)C)C(=O)N[C@@H](CC(=O)O)C(=O)N1CCC[C@H]1C(=O)N[C@@H](CCC(=O)O)C(=O)N[C@H](C(=O)NCC(=O)N[C@@H](CCC(=O)O)C(=O)N[C@@H](Cc1ccc(O)cc1)C(=O)N[C@@H](CC(C)C)C(=O)N[C@H](CCCNC(=N)N)C(=O)N[C@H](CCCNC(=N)N)C(=O)N[C@H](CCCNC(=N)N)C(=O)N[C@H](CCCNC(=N)N)C(=O)N[C@H](CCCNC(=N)N)C(=O)N[C@H](CCCNC(=N)N)C(=O)N[C@H](CCCNC(=N)N)C(=O)N[C@H](CCCNC(=N)N)C(=O)O)[C@@H](C)O)[C@@H](C)O	inactive				
CC(=O)N[C@@H](CCCCN)C(=O)N[C@@H](CC(=O)O)C(=O)N[C@@H](Cc1ccc(O)cc1)C(=O)N[C@@H](CCC(=O)O)C(=O)N[C@@H](CCC(=O)O)C(=O)N[C@H](C(=O)NCC(=O)N[C@H](C(=O)N[C@@H](CC(=O)O)C(=O)N[C@@H](CO)C(=O)N[C@H](C(=O)N[C@@H](CCC(=O)O)C(=O)NCC(=O)N[C@@H](CO)C(=O)NCC(=O)N[C@@H](CO)C(=O)N[C@@H](CC(C)C)C(=O)N[C@@H](CC(=O)O)C(=O)N1CCC[C@H]1C(=O)N[C@@H](CCC(=O)O)C(=O)N[C@H](C(=O)NCC(=O)N[C@@H](CCC(=O)O)C(=O)N[C@@H](Cc1ccc(O)cc1)C(=O)N[C@@H](CC(C)C)C(=O)N[C@H](CCCNC(=N)N)C(=O)N[C@H](CCCNC(=N)N)C(=O)N[C@H](CCCNC(=N)N)C(=O)N[C@H](CCCNC(=N)N)C(=O)N[C@H](CCCNC(=N)N)C(=O)N[C@H](CCCNC(=N)N)C(=O)N[C@H](CCCNC(=N)N)C(=O)N[C@H](CCCNC(=N)N)C(=O)O)[C@@H](C)O)C(C)C)C(C)C)C(C)C	Active				

Further lines, with some results ahead:

Activity [1]	Activity [2]	Activity [3]	Activity [4]	Structure (SMILES)	other results
Active				CC(=O)N[C@@H](Cc1ccc(O)cc1)C(=O)N[C@@H](CCC(N)=O)C(=O)N[C@@H](CCC(N)=O)C(=O)N[C@@H](Cc1ccc(O)cc1)C(=O)N[C@@H](CCC(N)=O)C(=O)N[C@@H](CC(=O)O)C(=O)N[C@@H](C)C(=O)N[C@H](C(=O)N[C@@H](C)C(=O)N[C@@H](CC(=O)O)C(=O)N[C@@H](CCC(=O)O)C(=O)N[C@@H](CCC(N)=O)C(=O)NCC(=O)NCC(=O)N[C@@H](CO)C(=O)NCC(=O)N[C@@H](CO)C(=O)N[C@@H](CC(C)C)C(=O)N[C@@H](CC(=O)O)C(=O)N1CCC[C@H]1C(=O)N[C@@H](CCC(=O)O)C(=O)N[C@H](C(=O)NCC(=O)N[C@@H](CCC(=O)O)C(=O)N[C@@H](Cc1ccccc1)C(=O)N[C@@H](CC(C)C)C(=O)N[C@H](CCCNC(=N)N)C(=O)N[C@H](CCCNC(=N)N)C(=O)N[C@H](CCCNC(=N)N)C(=O)N[C@H](CCCNC(=N)N)C(=O)N[C@H](CCCNC(=N)N)C(=O)N[C@H](CCCNC(=N)N)C(=O)N[C@H](CCCNC(=N)N)C(=O)N[C@H](CCCNC(=N)N)C(=O)O)[C@@H](C)O)[C@@H](C)O	
Active	Active	inactive	inactive	CC(=O)N[C@@H](Cc1ccc(O)cc1)C(=O)N[C@@H](CCC(N)=O)C(=O)N[C@@H](CCC(N)=O)C(=O)N[C@@H](Cc1ccc(O)cc1)C(=O)N[C@@H](CCC(N)=O)C(=O)N[C@@H](CC(=O)O)C(=O)N[C@@H](C)C(=O)N[C@H](C(=O)N[C@@H](C)C(=O)N[C@@H](CC(=O)O)C(=O)N[C@@H](CCC(=O)O)C(=O)N[C@@H](CCC(N)=O)C(=O)NCC(=O)NCC(=O)N[C@@H](CO)C(=O)NCC(=O)N[C@@H](CO)C(=O)N[C@@H](CC(C)C)C(=O)N[C@@H](CC(=O)O)C(=O)N1CCC[C@H]1C(=O)N[C@@H](CCC(=O)O)C(=O)N[C@H](C(=O)NCC(=O)N[C@@H](CCC(=O)O)C(=O)N[C@@H](Cc1ccc(O)cc1)C(=O)N[C@@H](CC(C)C)C(=O)N[C@H](CCCNC(=N)N)C(=O)N[C@H](CCCNC(=N)N)C(=O)N[C@H](CCCNC(=N)N)C(=O)N[C@H](CCCNC(=N)N)C(=O)N[C@H](CCCNC(=N)N)C(=O)N[C@H](CCCNC(=N)N)C(=O)N[C@H](CCCNC(=N)N)C(=O)N[C@H](CCCNC(=N)N)C(=O)O)[C@@H](C)O)[C@@H](C)O	Kd [5]: 22.8 nM; Kd [6]: 763 nM; Drug uptake [7]: Active; Drug uptake [8]: Active; Activity [9]: Active; Activity [10]: Dose-dependent effect; Activity [11]: Dose-dependent effect
